Literature values as cited in patent EP0540813B1, “Sustained release formulations of acetazolamide” (AMERICAN CYANAMID COMPANY, priority 1991, dated 1993).

Details: reported in the literature

In the case of `CC(=O)Nc1nnc(S(N)(=O)=O)s1` [acetazolamide, N-(5-sulphamoyl-1,3,4-thiadiazol-2-yl)acetamide], the “plasma levels considered toxic” value is listed as “above 30 µg/ml” and the therapeutic plasma range is listed as 5 to 10 µg/mL.
